Key:
TrkA = molecular target: T1, TrkA (Homo sapiens, UniProt P04629); test: TrkA enzyme activity test (HTRF); format: biochemical; conditions: 0.5 nM TrkA kinase, 90 μM ATP, 23° C., 90 minutes
T1 construct: purchased Invitrogen PV4114
Procedure: 50 mM Hepes (pH 7.5), 5 mM MgCl2 (magnesium chloride), 0.01 mM orthovanadate (sodium vanadate), 1% BSA (bovine serum albumin), 1 mM (dithiothreitol)
This experiment used Cisbio's homogeneous time-resolved fluorescence resonance energy transfer (HTRF® method) for activity test. In the test plate, the enzyme, biotin-labeled peptide substrate, ATP, and test compound were mixed, and incubated for reaction. After the reaction, ethylenediaminetetraacetic acid was added to terminate the reaction; at the same time, Eu-labeled antibody and streptavidin-labeled XL665 were added for reaction and detection. The data were expressed by the readings of the fluorescence signal at 665 nm and 620 nm, where a high ratio of 665 nm/620 nm indicated higher activity, and a low ratio of 665 nm/620 nm indicated inhibition of activity.
1. Dilution of compound: the test compound was 3-fold diluted to prepare a total of 11 concentrations, the concentration was from 10 μM to 0.17 nM in the final system;
2. A 10 μL reaction system with a buffer of 50 mM Hepes (pH 7.5), 5 mM MgCl2, 0.01 mM sodium vanadate, 1% BSA, and 1 mM DTT, and containing 0.5 nM TrkA kinase, 0.3 μM biotin-TK peptide (biotin-labeled tyrosine kinase substrate peptide), 90 μM ATP was incubated at 23° C. for 90 minutes. 10 μL of stop solution containing 20 mM EDTA, 1.34 nM phosphorylated substrate antibody, and 100 nM streptavidin-labeled fluorescent molecule XL-665 was then added, incubated at 23° C. for 60 minutes; the signal was read with Envision;
3. The inhibition rate of the compound was calculated from the data read by the instrument, and the IC50 value was calculated using the mode 205 in XLFIT5 of IDBS.

CYP2C9 = molecular target: T2, CYP2C9 (Homo sapiens, UniProt P11712); test: Cytochrome P450 isozyme inhibitory activity test, CYP2C9; format: in vitro ADME
T2 construct: from tissue; host or cells: human liver microsomes
Procedure: (§1) Determination of the inhibitory activity of the test compound on different human cytochrome P450 isozymes.
(§2) The test compound, standard inhibitor (100×final concentration), and a mixed substrate working solution were prepared; the microsome frozen in −80° C. refrigerator was thawed. […]

CYP2C19 = molecular target: T3, CYP2C19 (Homo sapiens, UniProt P33261); test: Cytochrome P450 isozyme inhibitory activity test, CYP2C19; format: in vitro ADME; conditions: heading: Cytochrome P450 isozyme IC50, CYP2C19; human liver microsome
T3 construct: from tissue; host or cells: human liver microsomes
Procedure: as §1
(§3) The test compound, standard inhibitor (100×final concentration), and a mixed substrate working solution were prepared; the microsome frozen in −80° C. refrigerator was thawed. 2 μL of the test compound and standard inhibitor solution was added to the corresponding wells, and at the same time 2 μL of the corresponding solvent was added to the non-inhibitor control wells (NIC) and blank control wells (Blank) wells; then 20 μL of mixed substrate solution was added to the corresponding wells, except for the Blank wells (20 μL of PB was added to the Blank wells); a human liver microsome solution was prepared (put back into the refrigerator immediately after using and marking the date), and then 158 μL of the human liver microsome solution was added to all wells; the above sample plate was placed in a 37° C. water bath for pre-incubation, then the coenzyme factor (NADPH) solution was prepared; 10 minutes later, 20 μL of the NADPH solution was added to all wells, and the sample plate was shaken well, placed in a 37° C. water bath and incubated for 10 minutes; at the corresponding time point, 400 μL of cold acetonitrile solution (internal standard: 200 ng/mL tolbutamide and labetalol) was added to terminate the reaction; the sample plate was evenly mixed, centrifuged at 4000 rpm for 20 minutes to precipitate proteins; 200 μL of the supernatant was added to 100 μL of water, shook well, and tested by LC/MS/MS.

CYP2D6 = molecular target: T4, CYP2D6 (Homo sapiens, UniProt P10635); test: Cytochrome P450 isozyme inhibitory activity test, CYP2D6; format: in vitro ADME; conditions: human liver microsomes
T4 construct: from tissue; host or cells: human liver microsomes
Procedure: as §1, §2

CYP3A4 = molecular target: T5, CYP3A4 (Homo sapiens, UniProt P08684); test: Cytochrome P450 isozyme inhibitory activity test, CYP3A4; format: in vitro ADME; conditions: human, human liver microsomes
T5 construct: from tissue; host or cells: human liver microsomes
Procedure: as §1, §3

plasma protein [1] = test: Plasma protein binding rate (PPB) test, human plasma; format: in vitro ADME; conditions: 2 μM, dialysis 37° C. 4 hours
Procedure: (§4) The protein binding rates of the test compound in the plasma of humans, SD rats and Beagle dogs were determined.
(§5) 796 μL of blank plasma from humans, SD rats and Beagle dogs (plasma purchased from BioreclamationIVT) were taken, 4 μL of working solution of the test compound (400 μM) or warfarin working solution (400 μM) was added and the final concentration of the test compound or warfarin was 2 μM. The sample was mixed thoroughly. The final concentration of organic phase DMSO was 0.5%; 50 μL of the plasma sample treated with the test compound or warfarin was pipetted into the sample receiving plate, and a corresponding volume of blank plasma or buffer was added immediately so that the final volume in each sample well was 100 μL, the volume ratio of plasma:dialysis buffer was 1:1; 400 μL of stop solution was added to these samples, and these samples were used as T0 samples for recovery and stability determination. To samples were stored at 2° C. to 8° C. for subsequent processing together with other dialyzed samples; 150 μL of the plasma sample treated with the test compound or warfarin was added into the dosing end of each dialysis hole, and 150 μL of blank dialysis buffer was added to the receiving end corresponding to the dialysis hole. Then the dialysis plate was sealed with gas-permeable membrane and placed in a humidified 5% CO2 incubator, and incubated at 37° C. with 100 rpm shaking for 4 hours. After the dialysis, 50 μL of the dialysis buffer sample and the dialysis plasma sample was transferred to a new sample receiving plate. […] All samples were analyzed by LC/MS/MS after protein precipitation, and the plasma protein unbound rate, binding rate and recovery rate was calculated according to the following formula: % unbound rate=100*free compound concentration at the membrane buffer side/total compound concentration at the membrane plasma side, % protein binding rate=100-% unbound rate, % recovery rate=100*(free compound concentration at the membrane buffer side+total compound concentration at the membrane plasma side)/total compound concentration before dialysis.

plasma protein [2] = test: Plasma protein binding rate (PPB) test, SD rat plasma; format: in vitro ADME; conditions: 2 μM, dialysis 37° C. 4 hours
Procedure: as §4, §5

[3] = Metabolic stability (MMS) by human liver microsome; format: in vitro ADME; conditions: liver microsomes, pH 7.4, 0.5 mg protein/mL, read-out: Intrinsic clearance by liver microsome, Human
Procedure: (§6) Determination of the metabolic stability of the test compound by human, rat and canine liver microsome.
(§7) Test compound (10 mM), testosterone (reference compound, 10 mM), diclofenac (reference compound, 10 mM), propafenone (reference compound, 10 mM).
(§8) 100 mM potassium phosphate buffer (pH 7.4).
(§9) Intermediate solution: 45 μL of DMSO was used (with 450 μL of 1:1 methanol/water) to dilute 5 μL of the test or reference compound.
(§10) Working solution: 450 μL of 100 mM potassium phosphate buffer was used to dilute the intermediate solution.
(§11) 1. β-Nicotinamide adenine dinucleotide phosphate, from Sigma, Cat. No. N0505.
(§12) 3. Isocitrate dehydrogenase, from Sigma, Cat. No. 12002.
(§13) Preparation of liver microsome solution (final concentration: 0.5 mg protein/mL)
(§14) Cold acetonitrile containing 100 ng/mL tolbutamide and 100 ng/mL labetalol was used as the internal standard.
(§15) 10 μL of the working solution of the test compound or reference compound was added to all plates (T0, T5, T10, T20, T30, T60, NCF60).
(§16) 680 μL of liver microsome solution was added to each well of 96-well plates, then 80 μL was added to each well of the plates, and the plates were placed at 37° C. for pre-incubation for approximately 10 minutes. […]
(§17) The half-life T/2 and the intrinsic clearance by liver microsome Clint(mic) were calculated by the following formulas: […]

[4] = Metabolic stability (MMS) by rat liver microsome; format: in vitro ADME; conditions: liver microsomes, pH 7.4, 0.5 mg protein/mL, read-out: Intrinsic clearance by liver microsome, Rat
Procedure: as §6, §7, §8, §9, §10, §11, §12, §13, §14, §15, §16, §17

T1 sequence (P04629 33-796): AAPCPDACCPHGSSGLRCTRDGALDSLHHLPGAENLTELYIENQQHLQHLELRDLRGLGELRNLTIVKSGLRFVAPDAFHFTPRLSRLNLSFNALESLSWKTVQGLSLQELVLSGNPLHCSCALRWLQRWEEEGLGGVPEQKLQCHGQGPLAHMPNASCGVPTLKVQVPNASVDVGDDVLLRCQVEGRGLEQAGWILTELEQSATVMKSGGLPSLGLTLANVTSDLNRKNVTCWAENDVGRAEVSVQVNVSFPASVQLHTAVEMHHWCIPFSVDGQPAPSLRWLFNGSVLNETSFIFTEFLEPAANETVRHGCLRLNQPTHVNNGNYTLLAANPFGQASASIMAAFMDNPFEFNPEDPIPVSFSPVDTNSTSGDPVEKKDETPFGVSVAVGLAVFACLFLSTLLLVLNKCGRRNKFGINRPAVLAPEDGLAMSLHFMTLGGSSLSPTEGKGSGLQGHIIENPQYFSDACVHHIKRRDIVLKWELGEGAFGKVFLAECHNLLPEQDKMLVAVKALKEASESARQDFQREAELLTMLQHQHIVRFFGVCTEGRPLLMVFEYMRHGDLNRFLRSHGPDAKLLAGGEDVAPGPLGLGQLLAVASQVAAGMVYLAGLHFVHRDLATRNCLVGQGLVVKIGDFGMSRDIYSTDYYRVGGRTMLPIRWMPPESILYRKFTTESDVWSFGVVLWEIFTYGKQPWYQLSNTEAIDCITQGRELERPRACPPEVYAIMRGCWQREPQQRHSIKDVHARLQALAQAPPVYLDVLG
T3 sequence (P33261 whole entry): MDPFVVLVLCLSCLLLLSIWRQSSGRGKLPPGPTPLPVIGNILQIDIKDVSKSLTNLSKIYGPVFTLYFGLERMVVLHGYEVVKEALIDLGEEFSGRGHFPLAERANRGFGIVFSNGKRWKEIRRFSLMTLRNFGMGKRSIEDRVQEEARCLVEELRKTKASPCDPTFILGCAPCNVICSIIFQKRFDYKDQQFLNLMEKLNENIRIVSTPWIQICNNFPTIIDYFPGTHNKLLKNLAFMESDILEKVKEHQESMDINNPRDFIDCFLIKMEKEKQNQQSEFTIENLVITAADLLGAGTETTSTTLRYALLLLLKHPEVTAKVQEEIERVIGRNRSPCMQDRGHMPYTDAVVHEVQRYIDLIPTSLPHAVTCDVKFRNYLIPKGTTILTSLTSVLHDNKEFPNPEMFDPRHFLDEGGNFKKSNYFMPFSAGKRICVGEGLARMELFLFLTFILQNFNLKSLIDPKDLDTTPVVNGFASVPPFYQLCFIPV
T4 sequence (P10635 whole entry): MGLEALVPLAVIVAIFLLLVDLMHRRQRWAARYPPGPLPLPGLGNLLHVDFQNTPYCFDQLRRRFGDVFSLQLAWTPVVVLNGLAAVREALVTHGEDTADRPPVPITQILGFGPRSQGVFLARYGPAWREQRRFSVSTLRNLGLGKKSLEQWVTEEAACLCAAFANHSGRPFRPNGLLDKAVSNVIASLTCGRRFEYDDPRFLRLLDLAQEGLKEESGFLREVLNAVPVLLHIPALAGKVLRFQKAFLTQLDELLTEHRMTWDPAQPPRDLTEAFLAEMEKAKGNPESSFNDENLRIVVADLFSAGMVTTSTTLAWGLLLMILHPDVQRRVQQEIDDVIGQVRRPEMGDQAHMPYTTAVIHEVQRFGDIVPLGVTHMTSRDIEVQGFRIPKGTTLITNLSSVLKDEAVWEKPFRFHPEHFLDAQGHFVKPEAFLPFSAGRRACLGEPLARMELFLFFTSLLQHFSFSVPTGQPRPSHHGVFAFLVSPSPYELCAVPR
T5 sequence (P08684 whole entry): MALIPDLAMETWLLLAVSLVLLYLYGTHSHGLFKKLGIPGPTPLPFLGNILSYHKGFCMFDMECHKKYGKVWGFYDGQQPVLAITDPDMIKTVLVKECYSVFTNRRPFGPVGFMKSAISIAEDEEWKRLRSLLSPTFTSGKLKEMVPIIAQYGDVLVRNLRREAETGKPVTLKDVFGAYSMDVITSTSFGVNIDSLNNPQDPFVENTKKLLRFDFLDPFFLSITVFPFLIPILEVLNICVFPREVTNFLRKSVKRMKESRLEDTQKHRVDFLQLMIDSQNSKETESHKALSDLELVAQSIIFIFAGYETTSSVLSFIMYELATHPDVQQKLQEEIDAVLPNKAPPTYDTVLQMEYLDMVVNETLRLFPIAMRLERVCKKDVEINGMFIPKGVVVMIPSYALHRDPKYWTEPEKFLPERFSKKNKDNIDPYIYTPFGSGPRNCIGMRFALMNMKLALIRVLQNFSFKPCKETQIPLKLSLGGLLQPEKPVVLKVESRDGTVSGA
T2 sequence (P11712 whole entry): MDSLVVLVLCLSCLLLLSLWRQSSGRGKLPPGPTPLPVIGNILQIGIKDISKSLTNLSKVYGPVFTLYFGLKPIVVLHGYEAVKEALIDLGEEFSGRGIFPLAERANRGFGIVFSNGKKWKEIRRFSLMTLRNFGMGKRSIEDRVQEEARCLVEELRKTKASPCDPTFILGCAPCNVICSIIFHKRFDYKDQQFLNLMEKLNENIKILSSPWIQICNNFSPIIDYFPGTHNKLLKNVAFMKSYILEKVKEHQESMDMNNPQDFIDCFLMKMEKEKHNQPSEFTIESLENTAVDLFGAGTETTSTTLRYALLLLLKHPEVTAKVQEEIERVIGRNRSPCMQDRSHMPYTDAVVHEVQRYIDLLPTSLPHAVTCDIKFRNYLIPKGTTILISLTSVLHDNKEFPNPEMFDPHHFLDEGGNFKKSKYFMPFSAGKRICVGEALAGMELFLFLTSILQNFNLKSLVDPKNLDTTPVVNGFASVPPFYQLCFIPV

COCCN1C[C@@H](n2cc(F)c(F)c2)[C@H](NC(=O)Nc2c(C)c(-c3cnc4c(c3)COC4)nn2-c2ccccc2)C1 [Compound 1]
IC50 (TrkA): 0.00016 µM | IC50 at 10 min (CYP2C9; human, human liver microsomes): 24.2 µM | IC50 (CYP2C19): > 50 µM | IC50 at 10 min (CYP2D6): 28.5 µM | IC50 at 10 min (CYP3A4): 19.2 µM

COCCN1C[C@@H](n2cc(F)c(F)c2)[C@H](NC(=O)Nc2c(C)c(-c3cnc(C4(F)COC4)nc3)nn2-c2ccccc2)C1 [Compound 6]
IC50 (TrkA): 0.00027 µM

COCCN1C[C@@H](n2cc(F)c(F)c2)[C@H](NC(=O)Nc2c(C)c(-c3cnc4c(c3)CN(C)C4)nn2-c2ccccc2)C1 [Compound 2]
IC50 (TrkA): 0.00027 µM | Plasma protein unbound rate, Human plasma (plasma protein [1]): 15.3% | Plasma protein unbound rate, SD Rat plasma (plasma protein [2]): 5.1% | CLint scaled [3]: 54.6 mL/min/kg | CLint scaled [4]: 25.5 mL/min/kg

COCCN1C[C@@H](n2ccc(F)c2)[C@H](NC(=O)Nc2c(C)c(-c3cnc(C4(F)CNC4)nc3)nn2-c2ccccc2)C1 [Compound 8]
IC50 (TrkA): 0.00103 µM

COCCN1C[C@@H](n2ccc(F)c2)[C@H](NC(=O)Nc2c(C)c(-c3cnc4c(c3)COC4)nn2-c2ccccc2)C1 [Compound 5]
IC50 (TrkA): 0.00024 µM

COCCN1C[C@@H](NC(=O)Nc2c(C)c(-c3cnc(C)nc3)nn2-c2ccccc2)[C@H](c2cccc(F)c2)C1 [Reference compound D1, reference compound]
Plasma protein unbound rate, Human plasma (plasma protein [1]): 13.6% | Plasma protein unbound rate, SD Rat plasma (plasma protein [2]): 9.6% | IC50 (CYP2C9; heading: Cytochrome P450 isozyme IC50, CYP2C9, human liver microsome): > 50 µM | IC50 (CYP2C19): > 50 µM | IC50 at 10 min (CYP2D6): 39.7 µM | IC50 at 10 min (CYP3A4): 37.1 µM | CLint scaled [3]: 52.1 mL/min/kg | CLint scaled [4]: 52.9 mL/min/kg

COCCN1C[C@@H](n2ccc(F)c2)[C@H](NC(=O)Nc2c(C)c(-c3cc4n(n3)CCC4)nn2-c2ccccc2)C1 [Compound 4]
IC50 (TrkA): 0.00305 µM

Source: patent publication US11932652B2, “Pyrrolidinyl urea derivatives and application thereof in TrkA-related diseases” (ZHANGZHOU PIEN TZE HUANG PHARMACEUTICAL CO., LTD., priority 2018, dated 2024)
